Results on five compounds are retold here after patent publication US9611286B2, “Ruthenium carbon monoxide releasing molecules and uses thereof” (Alfama, Inc., priority 2011, dated 2017).

Data set [1] concerns P. berghei ANKA GFP. Briefly: Adjunctive/adjuvant therapy with artesunate after onset of ECM. The format is in vivo, C57BL/6 mice. Particulars: for parasitemia: AS alone 40 mg/Kg/day i.p. d5-d6. The procedure:
Thus, the inventors decided to test Compound 1 as an adjunctive and adjuvant therapy during the acute phase of ECM. […] Therefore, the inventors assessed the combination of Compound 1 and AS on parasite clearance and clinical recovery from ECM. Two AS and Compound 1 combinations were tested: (i) Adjunctive therapy: AS and Compound 1 were administered concomitantly for 2 days after the onset of CM followed by a 3-day treatment with Compound 1 alone, or (ii) Adjuvant therapy: AS was administered on the first 2 days after CM onset followed by Compound 1 administration for 3 more days.
(§1) In order to evaluate the clinical presentation of experimental cerebral malaria, a classification was used in clinical stages from 0 to 4 (see, e.g., Bienvenu et al., Acta Trop (2008) 106:104-8; Franklin et al., Proc Natl Acad Sci USA (2011) 108:3689-94). Briefly, stage 0 indicates no detectable clinical symptoms, stage 1, ruffled fur; stage 2, ruffled fur and unbalancing; stage 3, limb paralysis and respiratory distress and stage 4, convulsions, coma or death. The mice were clinically classified before and after the treatment to evaluate the clinical recovery.
(§2) CORM-2 (Sigma-Aldrich) and Compound 2 were solubilized using 10% dimethyl sulfoxide (DMSO; Sigma-Aldrich) in PBS. CORM-3 and Compound 1 were solubilized in PBS (lx). CORM-2 solution (20 mg/kg of body weight) was administered intravenously (i.v.) according to the chosen schedules. […] As vehicle control, we used a solution of 10% DMSO in PBS administered i.v. The concentrations of CORM-2 used in the present study were based on previous reports (see, e.g., Chen et al. Am. J. Pathol. (2009) 175:422-429; Sun et al., World. J. Gastroenterol. (2008) 14:547-553). Artesunate is presented as a powder of artesunic acid. Artesunate (AS) solution was prepared by dissolving 60 mg of anhydrous artesunic acid in 1 ml of sodium bicarbonate (5%) to form sodium artesunate and then diluted in 5 ml of NaCl (0.9%). An AS solution (i.p.) was administered at 40 mg/Kg/day, as described previously (see, e.g., Bienvenu, Acta Trop (2008) 106:104-108). The AS treatment was started when the infected non-treated mice presented the clinical stage 1 for experimental cerebral malaria.

For data set [2] the following is noted: cited from earlier work.
For data set [3], the system named is P. berghei ANKA GFP. The format is in vivo, C57BL/6 mice. Particulars: for hyperparasitemia in protected mice (infected red blood cells): 3 weeks after infection; for effect on parasitemia: treated twice daily days 2-3, observed from about day 5 to day 8 of infection. The protocol:
It has previously been shown that administration of CO by inhalation protects P. berghei ANKA infected C57BL/6 mice from developing ECM (see, e.g., Pamplona et al. Nat Med (2007) 13:703-710). The inventors questioned whether CO-RMs could mimic the protection conferred by CO inhalation in P. berghei ANKA infection. To this end, a known ruthenium CORM, Ru(CO)3Cl2, also referred to herein as CORM-2, was tested on different schedules of treatment and doses in P. berghei ANKA infected C57BL/6 mice (data not shown).
Red blood cells infected with green fluorescent protein (GFP)-transgenic P. berghei ANKA and P. berghei ANKA was used to infect mice (see, e.g., Franke-Fayard et al. Mol Biochem Parasitol (2004) 137:23-33). Cryopreserved parasites were passed once through C57BL/6 or DBA-2 mice before being used to infect experimental animals. C57BL/6 or DBA-2, 6- to 8-wk-old mice (sex matched in each experiment) were infected by intra-peritoneal (i.p.) injection of 10^6 infected RBCs. The infected mice were monitored daily for clinical symptoms of experimental cerebral malaria (ECM) including hemi- or paraplegia, head deviation, tendency to roll over on stimulation, ataxia and convulsions, or ALI, including dyspnea. Mice showing severe signs of ECM at day 5, 6 or 7 post-infection (p.i.) and ALI between days 7 and 9 were sacrificed. Parasitemia was assessed by flow cytometry for mice infected with GFP-expressing P. berghei ANKA, using tail blood, as previously described (see, e.g., Pamplona et al., Nat Med (2007) 13:703-710). Mean parasitemia is expressed as percentage of infected red blood cells. For mice infected with non-GFP P. berghei parasitemia was assessed daily by microscopic counting of Giemsa-stained thin blood smears. Mean parasitemia is expressed as percentage of infected red blood cells. Survival is expressed as percentage.
as §1, §2

Data set [4] has as its target T1, Hen Egg White Lysozyme C (Gallus gallus, UniProt P00698).
T1 construct: one corresponding to the mass of native lysozyme (14305=calculated mass); from tissue; host or cells: hen egg white
Put plainly: Hen egg white lysozyme (HEWL) assay, reactivity with proteins by LC-MS. It is filed as binding. Particulars: 10 equiv in H2O, room temperature, 10 minutes and 1 hour. An excerpt: The hen egg white lysozyme (HEWL) assay was used to assess the reactivity of Compound 1 in the presence of proteins (see, e.g., Santos-Silva, T. et al. J Am Chem Soc (2011) 133, 1192-1195). This paper describes the interactions of CORM-3 with plasma proteins. CORM-3 reacts rapidily with proteins, losing chloride ion, glycinate, and one CO ligand. […] It was observed that CORM-3 reacts faster and has a much weaker efficacy than Compound 1 in this ECM treatment.
Liquid chromatography-mass spectrometry (LC-MS) was performed on a Micromass Quattro API instrument (ESI-TOF-MS) coupled to a Waters Alliance 2795 HPLC using a MassPREP On-Line Desalting Cartridge. […]
Hen Egg White Lysozyme C (PDB code 3b61; UniProtKB/Swiss-Prot code P00698). […] Quantitative determination of lysozyme-ligand binding in the solution and gas phases by electrospray ionisation mass spectrometry follows Veros et al., Rapid Commun. […] A 50 μL aliquot was analyzed by LC-MS (calculated average isotopic mass of the egg white lysozyme=14305.1).
Santos-Silva and co-workers previously describe CORM-3's reactivity towards proteins and formation of a Ru(II) dicarbonyl-lysozyme complex (see, e.g., Santos-Silva et al., J. Am. Chem. Soc. (2011) 133:1192-1195). […] 50 μL aliquots were collected and analyzed by LC-MS over the reaction time (10 minutes and 1 hour). […]

The test system of data set [5] is P. falciparum 3D7. Briefly: In vitro replication of P. falciparum 3D7. The format is cell-based, Plasmodium falciparum. To be noted: 48 h. The procedure:
(§3) The data led the inventors to wonder whether Compound 1 could have a direct anti-parasitic effect on P. berghei ANKA and P. falciparum parasites. To this end, the effect of Compound 1 and the anti-malarial chloroquine (CQ) was monitored on the in vitro replication of P. falciparum 3D7 isolate and P. berghei ANKA for 48 h and 24 h, respectively.

Data set [6] is described as follows: Brain histology (hematoxylin and eosin) in ECM. It is filed as in vivo, C57BL/6 mice. Particulars: P. berghei ANKA-infected mice. The procedure:
For evaluation of histological features, mice were deeply anesthetized until cessation of breathing when infected control mice presented signs of ECM or ALI. The livers, lungs, and brains were removed and fixed in 10% buffered formalin for 24-72 h. Four-micron sections were cut from paraffin-embedded tissues and stained with hematoxylin and eosin according to standard procedures. Histological analyses were performed on a Leica microscope DM 2500 (Leica Microsystems).

Data set [7] concerns P. berghei ANKA. Put plainly: Malaria-associated acute lung injury (M-AALI) model. It is filed as in vivo, DBA/2 mice. Particulars: i.v. twice daily.
Source text: The M-AALI model, based on the infection of DBA-2 mice with P. berghei ANKA, is characterized by dyspnea, airway obstruction, hypoxemia, pulmonary exudate and elevated VEGF levels in plasma, followed by death between days 7 and 12 after infection.
Red blood cells infected with green fluorescent protein (GFP)-transgenic P. berghei ANKA and P. berghei ANKA was used to infect mice (see, e.g., Franke-Fayard et al. Mol Biochem Parasitol (2004) 137:23-33). Cryopreserved parasites were passed once through C57BL/6 or DBA-2 mice before being used to infect experimental animals. […] The infected mice were monitored daily for clinical symptoms of experimental cerebral malaria (ECM) including hemi- or paraplegia, head deviation, tendency to roll over on stimulation, ataxia and convulsions, or ALI, including dyspnea. […] Parasitemia was assessed by flow cytometry for mice infected with GFP-expressing P. berghei ANKA, using tail blood, as previously described (see, e.g., Pamplona et al., Nat Med (2007) 13:703-710). Mean parasitemia is expressed as percentage of infected red blood cells. For mice infected with non-GFP P. berghei parasitemia was assessed daily by microscopic counting of Giemsa-stained thin blood smears. Mean parasitemia is expressed as percentage of infected red blood cells. Survival is expressed as percentage. […]
For data set [8], the system named is P. berghei ANKA. Put plainly: In vitro replication of P. berghei ANKA. It is filed as cell-based, Plasmodium berghei. To be noted: 24 h. The protocol: as §3
Data set [9] can be described thus: Quantification of Ru in tissues (bio-distribution). To be noted: non-infected mice, i.v. The procedure:
Tricarbonyldichloro(methylthiogalactopyranoside) Ru(II) [Ru(CO)3Cl2(Gal-S-Me)], also referred to herein as Compound 1, was prepared by reacting CORM-2 with methylthiogalactopyranoside (Gal-S-Me) as described herein (see FIG. 2a and Materials and Methods section). The bio-distribution of Compound 1 in tissues was assessed by quantifying the levels of Ru and CO in the host by the method of Vreman et al., Anal Biochem (2005) 341:280-9. Liver, kidney, spleen, lung and brain tissues of non-infected mice (NI) were analyzed one hour after administration of Compound 1 and the control molecule, Compound 2 (FIG. 2b). […] The spleen is an organ that plays a crucial role in erythrophagocytosis, process important for red blood cell turnover, and recycling of iron. Erythrocytes are hydrolyzed by splenic macrophages, where the degradation of hemoglobin occurs, haem is release, and is catabolized by heme oxygenase-1 into biliverdin, carbon monoxide and ferrous iron (Fe^2+).
The tissue samples were weighed and dried at 80° C. overnight followed by 2 or more hours at 120° C. […] The Ru content was analyzed by an inductively coupled plasma-atomic emission spectrometer (ICP-AES) (model Ultima-Horiba Jobin Yvon, Longjumeau, France) using an external Ru standard method.

T1 sequence (P00698 19-147): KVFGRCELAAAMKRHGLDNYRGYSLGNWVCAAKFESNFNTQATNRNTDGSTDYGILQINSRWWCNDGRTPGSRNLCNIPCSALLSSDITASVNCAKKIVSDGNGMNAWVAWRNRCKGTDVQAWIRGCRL

Regarding `C[C@H]1[C@H](OC(=O)CCC(=O)O)O[C@@H]2O[C@@]3(C)CC[C@H]4[C@H](C)CC[C@@H]1[C@@]24OO3` [AS, Artesunate], the parasitemia in data set [1] (day 5 post-infection) is listed as 6.8±0.3%; in [1] (day 9 post-infection), 0.59±0.06%. The “mice that died with ECM” value in data set [1] (AS alone d5-d6) turned out to be 82%. The survival in data set [1] (AS alone d5-d6) was 18%.
Take `[C-]#[O+].[C-]#[O+].[C-]#[O+].[C-]#[O+].[C-]#[O+].[C-]#[O+].[Cl][Ru][Cl].[Cl][Ru][Cl]` [CORM-2, tricarbonyldichlororuthenium(II) dimer]: the “COHb levels in blood after in vivo administration” value in data set [2] was “do not elevate the carboxyhemoglobin (COHb) levels”. In data set [3], the “hyperparasitemia in protected mice (infected red blood cells)” value is given as > 30 % infected red blood cells and the effect on parasitemia entry is “statistically significant delay in parasitemia”. Further, the “death or symptoms of ECM” value in data set [3] (CORM-2 20 mg/kg i.v. twice daily between days 2 and 3 after infection) is given as “prevented death or symptoms of ECM in all infected C57BL/6 mice”.
Take `NCC(=O)O.[C-]#[O+].[C-]#[O+].[C-]#[O+].[Cl][Ru]` [CORM-3, fac-Ru(CO)3C1(glycinate)]: the “COHb levels in blood after in vivo administration” value in data set [2] is on record as “do not elevate the carboxyhemoglobin (COHb) levels”. In data set [3], the “hyperparasitemia in protected mice (infected red blood cells)” value is listed as > 50 % infected red blood cells and the effect on parasitemia entry is listed as “statistically significant delay in parasitemia”. The “mice protected from ECM” value in data set [3] (i.v. twice daily between days 2 and 3 after infection, equimolar to CORM-2 20 mg/kg) is 50%. Further, the “reactivity with HEWL (adduct formation)” value in [4] was “reacts faster”.
Consider `CS(C)=O.CS(C)=O.CS(C)=O.CS(C)=O.[Cl][Ru][Cl]` [Compound 2, Tetrakis(dimethylsulfoxide)dichlororuthenium(II), reference compound], for which the “inhibition of in vitro growth” value in data set [5] and in data set [8] was “absence of inhibitory effect” throughout. For the same compound, the “neuropathologic features in brain sections” value in data set [6] is “evidence of microvascular congestion with pRBC and leukocytes and hemorrhagic foci”. The “mice that died displaying M-AALI symptoms” value in [7] is reported as 67%.
“Tricarbonyldichloro(methylthiogalactopyranoside) Ru(II) [Compound 1]”: the “amount of Ru retained in the liver after the last injection, of the Ru administered in all doses” value in data set [9] was “about 13.7±0.6%”.
